Like-named read-outs stand apart in the source and are kept apart here. Values belong to the compound of their own block, whether it stands above or below them. Non-standard residues stand in square brackets, D forms with d. Residues, ends and D or L forms follow the SMILES beside them. NMeT = CN[C@H](C(=O)O)[C@@H](C)O; NMeD = CN[C@@H](CC(=O)O)C(=O)O; Sar = CNCC(=O)O
Target: Sushi domains (SD1/2) protein
Test: Fluorescence polarization (FP) competition assay with AJAP-1probe, calculated Ki
Format: binding
Conditions: read-out: Ki (nM) mean ± SEM
In short: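 Ki values were derived from IC50s (sigmoidal fits, ≥ triplicate), with probe Kd obtained by saturation titration of SD1/2. Peptides displaced a 25 nM TAMRA-labelled probe; polarization read at 530/580 nm in 1% BSA-containing PBS, pH 7.4, room temperature.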

[1] = Table 9, Ala-, D-amino acids and N-methylation scans of PIANPWT
[2] = Table 4, truncation and elongation scans of APP epitope
[3] = Table 16, ncAAs incorporated peptides
[4] = Table 13, peptides for affinity maturation
[5] = Table 11, deep mutational scanning validation variants of AJAP-1WT

- Ki [1]: 552 ± 20 nM
Compound: CC[C@H](C)[C@H](NC(=O)[C@H](C)NC(=O)[C@H](Cc1c[nH]c2ccccc12)NC(=O)[C@H](C)NC(C)=O)C(=O)N[C@H](C(=O)N[C@@H](Cc1c[nH]c2ccccc12)C(=O)NCC(=O)N1CCC[C@H]1C(=O)N[C@H](C(=O)N[C@H](C(=O)N[C@@H](CO)C(=O)N[C@@H](CCCNC(=N)N)C(=O)N[C@@H](CCC(=O)O)C(=O)N[C@@H](CC(=O)O)C(N)=O)C(C)C)[C@@H](C)O)C(C)C [AWAIVWGPTVSRED] (Ac-AWAIVWGPTVSRED-NH2)

- Ki [1]: 434 ± 10 nM
Compound: CC[C@H](C)[C@H](NC(=O)[C@H](C)NC(=O)[C@H](Cc1c[nH]c2ccccc12)NC(=O)[C@@H]1CCCN1C(C)=O)C(=O)N[C@H](C(=O)N[C@@H](Cc1c[nH]c2ccccc12)C(=O)NCC(=O)N1CCC[C@H]1C(=O)N[C@H](C(=O)N[C@H](C(=O)N[C@@H](CO)C(=O)N[C@@H](CCCNC(=N)N)C(=O)N[C@@H](CCC(=O)O)C(=O)N(C)[C@@H](CC(=O)O)C(N)=O)C(C)C)[C@@H](C)O)C(C)C (Ac-PWAIVWGPTVSRE[NMeD]-NH2)

- Ki [2]: > 62500 nM
Compound: CC(=O)N[C@@H](CCC(=O)O)C(=O)N[C@@H](CCC(=O)O)C(=O)N[C@@H](CC(=O)O)C(=O)N[C@@H](CC(=O)O)C(=O)N[C@@H](CO)C(=O)N[C@@H](CC(=O)O)C(=O)N[C@H](C(=O)N[C@@H](Cc1c[nH]c2ccccc12)C(N)=O)C(C)C (Ac-EEDDSDVW-NH2)

- Ki [2]: 351 ± 26 nM
Compound: CC(=O)N[C@@H](CCC(=O)O)C(=O)N[C@@H](CCC(=O)O)C(=O)N[C@@H](CC(=O)O)C(=O)N[C@@H](CC(=O)O)C(=O)N[C@@H](CO)C(=O)N[C@@H](CC(=O)O)C(=O)N[C@H](C(=O)N[C@@H](Cc1c[nH]c2ccccc12)C(=O)N[C@@H](Cc1c[nH]c2ccccc12)C(=O)NCC(=O)NCC(=O)N[C@@H](C)C(=O)N[C@@H](CC(=O)O)C(=O)N[C@H](C(=O)N[C@@H](CC(=O)O)C(=O)N[C@@H](Cc1ccc(O)cc1)C(=O)N[C@@H](C)C(=O)N[C@@H](CC(=O)O)C(=O)NCC(=O)NCC(=O)N[C@@H](CCC(=O)O)C(N)=O)[C@@H](C)O)C(C)C (Ac-EEDDSDVWWGGADTDYADGGE-NH2)

- Ki [3]: 101 ± 4 nM
Compound: COc1ccc(C[C@H](NC(=O)[C@H](CO)NC(=O)[C@H](CC(=O)O)NC(=O)[C@H](CC(=O)O)NC(=O)[C@H](CCC(=O)O)NC(C)=O)C(=O)N[C@H](C(=O)N[C@@H](Cc2c[nH]c3ccccc23)C(=O)N[C@@H](Cc2c[nH]c3ccccc23)C(=O)NCC(=O)NCC(=O)N[C@@H](C)C(=O)N[C@@H](CC(=O)O)C(=O)N[C@H](C(=O)N[C@@H](CC(=O)O)C(N)=O)[C@@H](C)O)C(C)C)cc1 (Ac-EDDSY(Me)VWWGGADTD-NH2)

- Ki (Table 10, deep mutational scanning validation variants of APPWT): 142 ± 6 nM
Compound: CC(=O)N[C@@H](CCC(=O)O)C(=O)N[C@@H](CC(=O)O)C(=O)N[C@@H](CC(=O)O)C(=O)N[C@@H](CO)C(=O)N[C@@H](Cc1ccccc1)C(=O)N[C@H](C(=O)N[C@@H](Cc1c[nH]c2ccccc12)C(=O)N[C@@H](Cc1c[nH]c2ccccc12)C(=O)NCC(=O)NCC(=O)N[C@@H](C)C(=O)N[C@@H](CC(=O)O)C(=O)N[C@H](C(=O)N[C@@H](CC(=O)O)C(N)=O)[C@@H](C)O)C(C)C (Ac-EDDSFVWWGGADTD-NH2)

- Ki [4]: 164 ± 2 nM
Compound: CC(=O)N[C@@H](CCC(=O)O)C(=O)N[C@@H](CC(=O)O)C(=O)N[C@@H](CC(=O)O)C(=O)N[C@@H](CO)C(=O)N[C@@H](CC(=O)O)C(=O)N[C@H](C(=O)N[C@@H](Cc1c[nH]c2ccccc12)C(=O)N[C@@H](Cc1c[nH]c2ccccc12)C(=O)N[C@@H](Cc1ccc(O)cc1)C(=O)NCC(=O)N(C)CC(=O)N[C@@H](C)C(=O)N[C@@H](CC(=O)O)C(=O)N[C@H](C(=O)N[C@@H](CC(=O)O)C(N)=O)[C@@H](C)O)C(C)C (Ac-EDDSDVWWYG[Sar]ADTD-NH2)

- Ki [5]: 54 ± 2 nM
Compound: CC[C@H](C)[C@H](NC(=O)[C@H](Cc1ccccc1)NC(=O)[C@H](CCC(=O)O)NC(=O)[C@@H](NC(=O)[C@H](CCC(=O)O)NC(C)=O)[C@@H](C)O)C(=O)N[C@@H](C)C(=O)N[C@@H](Cc1c[nH]c2ccccc12)C(=O)NCC(=O)N1CCC[C@H]1C(=O)N[C@H](C(=O)NCC(=O)N[C@@H](CC(=O)O)C(=O)N[C@@H](CCC(=O)O)C(=O)N[C@@H](Cc1c[nH]c2ccccc12)C(N)=O)[C@@H](C)O (Ac-ETEFIAWGPTGDEW-NH2)

- Ki (Table 14, CPPs tagged peptides): 43.4 ± 1 nM
Compound: CC[C@H](C)[C@H](NC(=O)[C@H](Cc1c[nH]c2ccccc12)NC(=O)[C@H](CC(=O)O)NC(=O)[C@H](CC(=O)O)NC(=O)[C@H](CC(=O)O)NC(=O)[C@H](CCC(=O)O)NC(=O)[C@H](CCCNC(=N)N)NC(=O)[C@H](CCCNC(=N)N)NC(=O)[C@H](CCCNC(=N)N)NC(=O)[C@H](CCCNC(=N)N)NC(=O)[C@H](CCCNC(=N)N)NC(=O)[C@H](CCCNC(=N)N)NC(C)=O)C(=O)N[C@@H](CC(=O)O)C(=O)N[C@@H](Cc1c[nH]c2ccccc12)C(=O)NCC(=O)N1CCC[C@H]1C(=O)N[C@H](C(=O)N[C@@H](CO)C(=O)N[C@@H](CC(=O)O)C(=O)N[C@@H](CC(=O)O)C(=O)N[C@@H](CC(=O)O)C(N)=O)[C@@H](C)O (Ac-RRRRRREDDDWIDWGPTSDDD-NH2)

- Ki [2]: 341 ± 6 nM
Compound: CC(=O)N[C@@H](CCC(=O)O)C(=O)N[C@@H](CCC(=O)O)C(=O)N[C@@H](CC(=O)O)C(=O)N[C@@H](CC(=O)O)C(=O)N[C@@H](CO)C(=O)N[C@@H](CC(=O)O)C(=O)N[C@H](C(=O)N[C@@H](Cc1c[nH]c2ccccc12)C(=O)N[C@@H](Cc1c[nH]c2ccccc12)C(=O)NCC(=O)NCC(=O)N[C@@H](C)C(=O)N[C@@H](CC(=O)O)C(=O)N[C@H](C(=O)N[C@@H](CC(=O)O)C(=O)N[C@@H](Cc1ccc(O)cc1)C(=O)N[C@@H](C)C(=O)N[C@@H](CC(=O)O)C(=O)NCC(=O)NCC(N)=O)[C@@H](C)O)C(C)C (Ac-EEDDSDVWWGGADTDYADGG-NH2)

- Ki [4]: 190 ± 3 nM
Compound: CC[C@H](C)[C@H](NC(=O)[C@H](Cc1ccccc1)NC(=O)[C@H](CCC(=O)O)NC(=O)[C@@H](NC(=O)[C@H](CCC(=O)O)NC(C)=O)[C@@H](C)O)C(=O)N[C@@H](C)C(=O)N[C@@H](Cc1c[nH]c2ccccc12)C(=O)N[C@@H](Cc1ccc(O)cc1)C(=O)N1CCC[C@H]1C(=O)N[C@@H](C)C(=O)N[C@@H](CC(=O)O)C(=O)N[C@H](C(=O)N[C@@H](CC(=O)O)C(N)=O)[C@@H](C)O (Ac-ETEFIAWYPADTD-NH2)

- Ki (Table 7, Ala-, D-amino acids and N-methylation scans of APPWT): 8790 ± 92 nM
Compound: CC(=O)N[C@@H](CCC(=O)O)C(=O)N[C@@H](CC(=O)O)C(=O)N[C@@H](CC(=O)O)C(=O)N[C@@H](CO)C(=O)N[C@@H](CC(=O)O)C(=O)N[C@H](C(=O)N[C@@H](C)C(=O)N[C@@H](Cc1c[nH]c2ccccc12)C(=O)NCC(=O)NCC(=O)N[C@@H](C)C(=O)N[C@@H](CC(=O)O)C(=O)N[C@H](C(=O)N[C@@H](CC(=O)O)C(N)=O)[C@@H](C)O)C(C)C (Ac-EDDSDVAWGGADTD-NH2)

- Ki (Table 6, elongation and truncation scan of PIANP binding epitope): 561 ± 21 nM
Compound: CC[C@H](C)[C@H](NC(=O)[C@H](C)NC(=O)[C@H](Cc1c[nH]c2ccccc12)NC(=O)[C@@H]1CCCN1C(C)=O)C(=O)N[C@H](C(=O)N[C@@H](Cc1c[nH]c2ccccc12)C(=O)NCC(=O)N1CCC[C@H]1C(=O)N[C@H](C(=O)N[C@H](C(N)=O)C(C)C)[C@@H](C)O)C(C)C (Ac-PWAIVWGPTV-NH2)

- Ki [1]: 600 ± 22 nM
Compound: CC[C@H](C)[C@H](NC(=O)[C@H](C)NC(=O)[C@H](Cc1c[nH]c2ccccc12)NC(=O)[C@@H]1CCCN1C(C)=O)C(=O)N[C@H](C(=O)N[C@@H](Cc1c[nH]c2ccccc12)C(=O)NCC(=O)N1CCC[C@H]1C(=O)N[C@H](C(=O)N[C@H](C(=O)N[C@@H](CO)C(=O)N[C@@H](CCCNC(=N)N)C(=O)N[C@@H](C)C(=O)N[C@@H](CC(=O)O)C(N)=O)C(C)C)[C@@H](C)O)C(C)C (Ac-PWAIVWGPTVSRAD-NH2)

- Ki (Table 8, Ala-, D-amino acids and N-methylation scans of AJAP-1WT): 77 ± 3 nM
Compound: CC[C@H](C)[C@H](NC(=O)[C@H](Cc1ccccc1)NC(=O)[C@H](CCC(=O)O)NC(=O)[C@@H](NC(=O)[C@H](CCC(=O)O)NC(C)=O)[C@@H](C)O)C(=O)N[C@@H](C)C(=O)N[C@@H](Cc1c[nH]c2ccccc12)C(=O)NCC(=O)N1CCC[C@H]1C(=O)N(C)[C@H](C(=O)NCC(=O)N[C@@H](CC(=O)O)C(=O)N[C@@H](CCC(=O)O)C(=O)N[C@@H](CC(=O)O)C(N)=O)[C@@H](C)O (Ac-ETEFIAWGP[NMeT]GDED-NH2)

- Ki (Table 5, elongation and truncation scan of AJAP-1 binding epitope): 69 ± 1 nM
Compound: CC[C@H](C)[C@H](NC(=O)[C@H](Cc1ccccc1)NC(=O)[C@H](CCC(=O)O)NC(=O)[C@@H](NC(=O)[C@H](CCC(=O)O)NC(=O)[C@@H](NC(C)=O)[C@@H](C)O)[C@@H](C)O)C(=O)N[C@@H](C)C(=O)N[C@@H](Cc1c[nH]c2ccccc12)C(=O)NCC(=O)N1CCC[C@H]1C(=O)N[C@H](C(=O)NCC(=O)N[C@@H](CC(=O)O)C(=O)N[C@@H](CCC(=O)O)C(N)=O)[C@@H](C)O (Ac-TETEFIAWGPTGDE-NH2)

- Ki [5]: 87 ± 3 nM
Compound: CC[C@H](C)[C@H](NC(=O)[C@H](Cc1ccccc1)NC(=O)[C@H](CCC(=O)O)NC(=O)[C@@H](NC(=O)[C@H](CCCNC(=N)N)NC(C)=O)[C@@H](C)O)C(=O)N[C@@H](C)C(=O)N[C@@H](Cc1c[nH]c2ccccc12)C(=O)NCC(=O)N1CCC[C@H]1C(=O)N[C@H](C(=O)NCC(=O)N[C@@H](CC(=O)O)C(=O)N[C@@H](CCC(=O)O)C(=O)N[C@@H](CC(=O)O)C(N)=O)[C@@H](C)O [RTEFIAWGPTGDED] (Ac-RTEFIAWGPTGDED-NH2)

- Ki [3]: 113 ± 2 nM
Compound: CCOc1ccc(C[C@H](NC(=O)[C@H](Cc2c[nH]c3ccccc23)NC(=O)[C@H](Cc2c[nH]c3ccccc23)NC(=O)[C@@H](NC(=O)[C@H](CC(=O)O)NC(=O)[C@H](CO)NC(=O)[C@H](CC(=O)O)NC(=O)[C@H](CC(=O)O)NC(=O)[C@H](CCC(=O)O)NC(C)=O)C(C)C)C(=O)NCC(=O)N[C@@H](C)C(=O)N[C@@H](CC(=O)O)C(=O)N[C@H](C(=O)N[C@@H](CC(=O)O)C(N)=O)[C@@H](C)O)cc1 (Ac-EDDSDVWWY(Et)GADTD-NH2)
